# Data taken from paper doi:10.1101/2025.08.01.668199, “Vacuolar Phosphatidylinositol 3,4,5-trisphosphate controls fusion through binding Vam7, and membrane microdomain assembly” (bioRxiv, 2025).
# Experiments:
# Vam7 = target: T1, Vam7 (Saccharomyces cerevisiae, UniProt P32912); test: bio-layer interferometry, biotinylated lipid on streptavidin probe; assay type: binding
# T1 construct: GST-Vam7
# T1 sequence (P32912 1-316): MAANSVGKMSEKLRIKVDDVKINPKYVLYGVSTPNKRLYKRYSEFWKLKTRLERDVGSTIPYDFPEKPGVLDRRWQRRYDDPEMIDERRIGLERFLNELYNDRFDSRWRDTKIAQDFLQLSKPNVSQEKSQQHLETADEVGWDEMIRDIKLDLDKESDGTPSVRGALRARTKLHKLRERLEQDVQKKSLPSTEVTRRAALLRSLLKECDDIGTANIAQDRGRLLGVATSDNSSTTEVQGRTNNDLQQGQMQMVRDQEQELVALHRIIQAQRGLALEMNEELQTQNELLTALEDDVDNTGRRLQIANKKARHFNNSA
# Vam7^Y42A = target: T2, Vam7^Y42A (Saccharomyces cerevisiae, UniProt P32912, Y42A); test: as above; assay type: binding
# T2 construct: GST-Vam7^Y42A
# T2 sequence (P32912 whole entry Y42A): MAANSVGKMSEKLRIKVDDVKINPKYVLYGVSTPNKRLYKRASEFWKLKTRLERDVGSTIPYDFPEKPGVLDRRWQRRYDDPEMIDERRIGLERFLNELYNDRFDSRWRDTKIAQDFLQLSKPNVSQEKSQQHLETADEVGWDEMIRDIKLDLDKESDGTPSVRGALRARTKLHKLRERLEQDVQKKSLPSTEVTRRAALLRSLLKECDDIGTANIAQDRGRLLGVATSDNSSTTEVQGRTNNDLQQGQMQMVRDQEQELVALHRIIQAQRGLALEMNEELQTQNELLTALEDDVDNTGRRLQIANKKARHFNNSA
Substance,Kd (Vam7),Kd (Vam7^Y42A)
PI3P,~200 nM,–
"PI(3,4,5)P3",~70 nM,~210 nM
